Results from patent US20080293777A1, “Weight Loss Treatment” (priority 2007, published 2008).
Where a name gives a salt, the structure may show the parent alone.

Columns and labels:
[1] = biological target: T1, PTP-1B (wild type, residues 1-298) (Homo sapiens, UniProt P18031); assay: PTP-1B activity assay with pNPP, with or without DTT added afterwards; type: biochemical; details: FIG. 1
T1 construct: PTP-1B (wild type, residues 1-298) was exchanged into DFTN buffer
T1 sequence (P18031 1-298): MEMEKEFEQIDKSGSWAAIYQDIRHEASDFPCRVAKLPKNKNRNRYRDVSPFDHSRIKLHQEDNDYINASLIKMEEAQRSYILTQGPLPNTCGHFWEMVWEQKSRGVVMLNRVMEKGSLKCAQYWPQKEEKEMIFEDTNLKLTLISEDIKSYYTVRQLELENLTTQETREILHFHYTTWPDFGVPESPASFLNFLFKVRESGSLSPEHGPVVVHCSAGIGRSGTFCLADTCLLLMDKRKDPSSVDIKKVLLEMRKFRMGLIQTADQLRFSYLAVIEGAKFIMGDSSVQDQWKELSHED
Experimental: (§1) PTP-1B (wild type, residues 1-298) was exchanged into DFTN buffer (DTT-free, 50 mM Tris, 100 mM NaCl, 1 mM EDTA, pH 7.4) using a NAP-5 column, and the concentration of protein was quantified using the absorbance at 280 nm. Purity of the PTP-1B was evidenced by a single mass peak (mass=34,672 amu in a mass spectrometer).
(§2) To 99 mL solution of 1.0 μM PTP-1B in buffer was added 1 mL of Compound 1 in DMSO […]. After 15 minutes, each Compound 1-treated PTP-1B sample was evaluated by mass spectrometry (QSTAR protein mass spectrometer with Baynesian protein mass deconvolution). Concurrently, two 10 μL aliquots were removed. One aliquot was diluted with 10 μL DFTN buffer while the other aliquot was diluted with 10 μL TN buffer (1 mM DTT, 50 mM Tris, 100 mM NaCl, 1 mM EDTA, pH 7.4). After 15 minutes, the samples were diluted with 90 μL pNPP solution (5.6 mM pNPP in DFTN) and the A405 of the solution was monitored for 5 minutes.

[2] = biological target: T1, PTP-1B (wild type, residues 1-298); assay: Mass spectrometry of PTP-1B treated with Compound 1; type: binding; details: 1 equivalent of Compound 1 for 15 minutes, FIG. 2
Experimental: as §1, §2

[3] = Weight change in leptin-deficient (ob/ob) mice; type: in vivo; details: for weight change: PO BID for 7 days, FIG. 3
Experimental: To investigate Compound 1's effect on various metabolic disorders including diabetes and obesity, in vivo studies were conducted in the ob/ob obese mouse model and in the db/db diabetic model. The ob/ob mouse is deficient in the hormone leptin, a 16 kDa protein that is secreted by fat cells and plays a key role in regulating energy intake and energy expenditure, including the regulation of appetite and metabolism. […] Compound 1 was tested in these metabolic disease models along with two anti-diabetic drugs that also affect body weight, metformin hydrochloride and rosiglitazone maleate.
Male BKS.Cg-m+/+Leprdb/J (˜5 weeks of age) and B6.V-Lepob/J mice (˜8 weeks of age) were used for in vivo efficacy studies. Mice were housed 4 per cage and acclimated for 10 days prior to the start of the study. […] Mice were weighed each morning just prior to dosing. Mice were fasted overnight between study day 1 and 2 and blood glucose was measured in the morning of day 2 using a glucometer and blood from a tail nick. Food was returned to the mice ad libitum and the mice were again fasted overnight between study day 3 and 4, 5 and 6, and 7 and 8.

[4] = cited from earlier work
[5] = Weight change in db/db mice (mutation mapped to leptin receptor); type: in vivo; details: FIG. 4
Experimental: To investigate Compound 1's effect on various metabolic disorders including diabetes and obesity, in vivo studies were conducted in the ob/ob obese mouse model and in the db/db diabetic model. The ob/ob mouse is deficient in the hormone leptin, a 16 kDa protein that is secreted by fat cells and plays a key role in regulating energy intake and energy expenditure, including the regulation of appetite and metabolism. Leptin-deficient mice are severely obese and develop diabetes but revert to normal weight upon leptin administration. In the second model, the mice have a genetic mutation mapped to the leptin receptor (db/db) and at the time of the experiment were moderately overweight. Compound 1 was tested in these metabolic disease models along with two anti-diabetic drugs that also affect body weight, metformin hydrochloride and rosiglitazone maleate.
Male BKS.Cg-m+/+Leprdb/J (˜5 weeks of age) and B6.V-Lepob/J mice (˜8 weeks of age) were used for in vivo efficacy studies. Mice were housed 4 per cage and acclimated for 10 days prior to the start of the study. […] Mice were fasted overnight between study day 1 and 2 and blood glucose was measured in the morning of day 2 using a glucometer and blood from a tail nick. […]

relative activity of PTP-1B ([1]; 0-2 equivalents of Compound 1, 15 minutes) | reversibility of covalent inhibition of PTP-1B ([1]; upon addition of a reducing agent such as DTT) | covalent modification of PTP-1B (mass spectrum) [2] | Compound | difference in weight loss between doses ([3]; 20 mg/kg vs 100 mg/kg Compound 1 dosed orally BID) | weight change [3] | cell permeability ([4]; data from clinical trials) | bioavailability of the selenium moiety ([4]; human, in vivo) | oral bioavailability ([4]; humans, clinical trials) | tolerability ([4]; humans, clinical trials) | toxicity ([4]; up to 500 mg/day oral dose in humans) | statistical significance of weight gains [5]
inhibits the activity | reversible | covalently modifies | O=c1c2ccccc2[se]n1-c1ccccc1 [Compound 1, 2-phenyl-1,2-benzisoselenazol-3(2H)-one] | No significant difference in weight loss | promoted weight loss | cell-permeable | not bioavailable | orally bioavailable | well tolerated | no toxicity was observed | –
– | – | – | CN(C)C(=N)N=C(N)N [metformin, metformin hydrochloride, reference compound] | – | promoted weight loss | – | – | – | – | – | –
– | – | – | CN(CCOc1ccc(CC2SC(=O)NC2=O)cc1)c1ccccn1.O=C(O)/C=C\C(=O)O (stereo not shown) [rosiglitazone, rosiglitazone maleate, reference compound] | – | gained weight | – | – | – | – | – | except for the rosiglitazone-treated mice, the weight gains were not statistically significant
